Counter-ions that a name gives are not always drawn.
Target: T1, IRAK4 (Homo sapiens, UniProt Q9NWZ3)
T1 sequence (Q9NWZ3 1-460): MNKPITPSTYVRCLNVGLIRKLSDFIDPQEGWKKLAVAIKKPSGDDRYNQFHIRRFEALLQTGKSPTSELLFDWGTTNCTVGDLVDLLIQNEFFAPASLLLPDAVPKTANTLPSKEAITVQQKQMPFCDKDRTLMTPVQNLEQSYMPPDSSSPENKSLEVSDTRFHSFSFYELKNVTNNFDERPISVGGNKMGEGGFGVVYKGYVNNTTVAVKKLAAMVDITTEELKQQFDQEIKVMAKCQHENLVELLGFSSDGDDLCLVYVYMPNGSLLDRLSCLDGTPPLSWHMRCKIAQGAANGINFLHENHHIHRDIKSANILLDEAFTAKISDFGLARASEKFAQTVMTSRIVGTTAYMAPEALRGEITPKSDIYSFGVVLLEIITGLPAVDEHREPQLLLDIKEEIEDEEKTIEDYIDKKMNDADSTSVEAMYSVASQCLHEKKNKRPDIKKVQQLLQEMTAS
Test: biochemical
Details: not given

**Q.** For `COc1cc2nc(C3CCOCC3)cn2cc1C(=O)Nc1cccnc1OCC(F)F` [Example 196], which IC50 is on record?
**A.** 0.0091 µM

**Q.** `COc1cc2nc(C3CCOCC3)cn2cc1C(=O)Nc1cccnc1OC` [Example 193] was tested. Which IC50 did it give?
**A.** 0.0027 µM

**Q.** For `COc1cc2nc(C3CCOCC3)cn2cc1C(=O)Nc1cccnc1OC(C)C` [Example 200], which IC50 is on record?
**A.** 0.0115 µM

**Q.** How did the IC50 turn out when `Cc1nc(C(=O)Nc2cccc(C(F)F)n2)cn2cc(C3CCOCC3)nc12` [Example 213] was run?
**A.** 0.0607 µM

**Q.** How did the IC50 turn out when `CC1CC(Oc2cc3nc(C45COC(C)(C4)C5)cn3cc2C(=O)Nc2ccn(C)n2)C1` (stereo not shown) [Example 549] was run?
**A.** 0.0034 µM

**Q.** How did the IC50 turn out when `COc1cc2nc(C3CCOCC3)cn2cc1C(=O)Nc1cccnc1O` [Example 189] was run?
**A.** 0.0165 µM

**Q.** With `COc1ncccc1NC(=O)c1cn2cc(C34COC(C)(C3)C4)nc2cc1OC(C)C` [Example 216] as the compound, how does the IC50 read?
**A.** 0.0005 µM

**Q.** How did the IC50 turn out when `COc1cc2nc(C3CCOCC3)cn2cc1C(=O)Nc1ccc(O)nc1OC` [Example 188] was run?
**A.** 0.326 µM

**Q.** `O=C(Nc1cccc(C(F)F)n1)c1cn2cc(C3CC3)nc2cc1OC1CCCC1` [Example 467, 7-(Cyclopentyloxy)-2-cyclopropyl-N-(6-(difluoromethyl)pyridin-2-yl)imidazo[1,2-a]pyridine-6-carboxamide] was tested. Which IC50 did it give?
**A.** 0.001 µM

**Q.** How did the IC50 turn out when `CCCOc1nc(C(=O)Nc2cccc(C(F)F)n2)cn2cc(C3CCOCC3)nc12` [Example 335, N-(6-(difluoromethyl)pyridin-2-yl)-8-propoxy-2-(tetrahydro-2H-pyran-4-yl)imidazo[1,2-a]pyrazine-6-carboxamide] was run?
**A.** 0.0006 µM

**Q.** For `C[C@@]12CC[C@@](c3cn4cc(C(=O)Nc5cccc(C(F)F)n5)nc(OC5CCC5)c4n3)(CO1)C2` (single isomer, unassigned) [Example 626], which IC50 is on record?
**A.** 0.0006 µM

**Q.** With `CCn1cccc(NC(=O)c2cn3cc(C4CCOCC4)nc3cc2OC)c1=O` [Example 185] as the compound, how does the IC50 read?
**A.** 0.0434 µM

**Q.** For `CC12CC(c3cn4cc(C(=O)Nc5cccn(C(F)F)c5=O)c(OCC5CC5(F)F)cc4n3)(CO1)C2` (stereo not shown) [Example 452, 7-((2,2-Difluorocyclopropyl)methoxy)-N-(1-(difluoromethyl)-2-oxo-1,2-dihydropyridin-3-yl)-2-(1-methyl-2-oxabicyclo[2.1.1]hexan-4-yl)imidazo[1,2-a]pyridine-6-carboxamide], which IC50 is on record?
**A.** 0.0008 µM

**Q.** Which IC50 does the source give for `CC(C)Oc1nc2nc(C34CCC(C)(CC3)OC4)cn2cc1C(=O)Nc1cc(F)n(C)n1` [Example 382, N-(5-fluoro-1-methyl-1H-pyrazol-3-yl)-7-isopropoxy-2-(1-methyl-2-oxabicyclo[2.2.2]octan-4-yl)imidazo[1,2-a]pyrimidine-6-carboxamide] here?
**A.** 0.0046 µM

**Q.** How did the IC50 turn out when `COc1c(C(=O)Nc2cccc(C(F)F)n2)cn2cc(C34COC(C)(C3)C4)nc2c1C` [Example 290, N-(6-(difluoromethyl)pyridin-2-yl)-7-methoxy-8-methyl-2-(1-methyl-2-oxabicyclo[2.1.1]hexan-4-yl)imidazo[1,2-a]pyridine-6-carboxamide] was run?
**A.** 0.0276 µM

**Q.** How did the IC50 turn out when `CC(C)Oc1cc2nc(C34COC(C3)C4)cn2cc1C(=O)Nc1ccn(C)n1` [Example 546, 2-(2-Oxabicyclo[2.1.1]hexan-4-yl)-7-isopropoxy-N-(1-methyl-1H-pyrazol-3-yl)imidazo[1,2-a]pyridine-6-carboxamide] was run?
**A.** 0.0086 µM

**Q.** How did the IC50 turn out when `CC(C)Oc1nc2nc([C@]34CC[C@](C)(C3)OC4)cn2cc1C(=O)Nc1cnn2cc(F)cnc12` (single isomer, unassigned) [Example 631] was run?
**A.** 0.0004 µM

**Q.** Which IC50 does the source give for `COc1cc2nc(C3CCOCC3)cn2cc1C(=O)Nc1cnn(C)c1C` [Example 194] here?
**A.** 0.624 µM

**Q.** With `Cn1ccc(NC(=O)c2cn3cc(C45CCC(C)(C4)OC5)nc3cc2OC2CCCC2)n1` (stereo not shown) [Example 632, 7-(Cyclopentyloxy)-N-(1-methyl-1H-pyrazol-3-yl)-2-(1-methyl-2-oxabicyclo[2.2.1]heptan-4-yl)imidazo[1,2-a]pyridine-6-carboxamide] as the compound, how does the IC50 read?
**A.** 0.0018 µM

**Q.** Which IC50 does the source give for `CC(C)Oc1c(C(=O)Nc2cccc(C(F)F)n2)cn2cc(C3CCOCC3)nc2c1F` [Example 303, N-(6-(difluoromethyl)pyridin-2-yl)-8-fluoro-7-isopropoxy-2-(tetrahydro-2H-pyran-4-yl)imidazo[1,2-a]pyridine-6-carboxamide] here?
**A.** 0.0014 µM

**Q.** For `CCOc1nc(C(=O)Nc2cc(F)cnc2OC)cn2cc([C@H]3CCCOC3)nc12` (single isomer, unassigned) [Example 595], which IC50 is on record?
**A.** 0.0128 µM

**Q.** With `Cn1cc(-c2cccc(NC(=O)c3cn4cc(C56COC(C)(C5)C6)nc4cc3OC3CCC3)n2)cn1` [Example 520, 7-Cyclobutoxy-N-(6-(1-methyl-1H-pyrazol-4-yl)pyridin-2-yl)-2-(1-methyl-2-oxabicyclo[2.1.1]hexan-4-yl)imidazo[1,2-a]pyridine-6-carboxamide] as the compound, how does the IC50 read?
**A.** 0.0001 µM

**Q.** `Cn1ccc(NC(=O)c2cn3cc([C@@]45CC[C@@](C)(C4)OC5)nc3cc2OC2CCC2)n1` (single isomer, unassigned) [Example 610] was tested. Which IC50 did it give?
**A.** 0.0008 µM

**Q.** `CC(C)Oc1nc2nc(C34CCC(C)(CC3)OC4)cn2cc1C(=O)Nc1cccn(C(F)F)c1=O` [Example 384, N-(1-(difluoromethyl)-2-oxo-1,2-dihydropyridin-3-yl)-7-isopropoxy-2-(1-methyl-2-oxabicyclo[2.2.2]octan-4-yl)imidazo[1,2-a]pyrimidine-6-carboxamide] was tested. Which IC50 did it give?
**A.** 0.0002 µM

**Q.** For `Cn1ccc(NC(=O)c2cn3cc([C@]45CC[C@](C)(C4)OC5)nc3cc2OC2CCCC2)n1` (single isomer, unassigned) [Example 633], which IC50 is on record?
**A.** 0.0016 µM

**Q.** With `CCOc1nc(C(=O)Nc2cccc(C3CC3)n2)cn2cc(C34COC(C)(C3)C4)nc12` [Example 493, N-(6-cyclopropylpyridin-2-yl)-8-ethoxy-2-(1-methyl-2-oxabicyclo[2.1.1]hexan-4-yl)imidazo[1,2-a]pyrazine-6-carboxamide] as the compound, how does the IC50 read?
**A.** 0.0032 µM

**Q.** For `CC(C)Oc1cc2nc([C@@]34CC[C@@](C)(C3)OC4)cn2cc1C(=O)Nc1cccn(C)c1=O` (single isomer, unassigned) [Example 620], which IC50 is on record?
**A.** 0.0006 µM

**Q.** Which IC50 does the source give for `CCOc1nc(C(=O)Nc2cccc3ccnn23)cn2cc(C34COC(C)(C3)C4)nc12` [Example 489, 8-Ethoxy-2-(1-methyl-2-oxabicyclo[2.1.1]hexan-4-yl)-N-(pyrazolo[1,5-a]pyridin-7-yl)imidazo[1,2-a]pyrazine-6-carboxamide] here?
**A.** 0.0031 µM

**Q.** For `CCOc1cc(C(=O)Nc2cccc(OC)n2)cn2cc(C3CCCOC3)nc12` (stereo not shown) [Example 53, 8-Ethoxy-N-(6-methoxypyridin-2-yl)-2-(tetrahydro-2H-pyran-3-yl)imidazo[1,2-a]pyridine-6-carboxamide], which IC50 is on record?
**A.** 0.0352 µM

**Q.** How did the IC50 turn out when `CC(C)Oc1nc2nc(C34COC(C)(C3)C4)cn2cc1C(=O)Nc1cnn2cc(C(F)F)cnc12` [Example 369, N-(6-(difluoromethyl)pyrazolo[1,5-a]pyrimidin-3-yl)-7-isopropoxy-2-(1-methyl-2-oxabicyclo[2.1.1]hexan-4-yl)imidazo[1,2-a]pyrimidine-6-carboxamide] was run?
**A.** 0.0008 µM

**Q.** Which IC50 does the source give for `CC12CC(c3cn4cc(C(=O)Nc5cccc(C(F)F)n5)ncc4n3)(CO1)C2` [Example 334, N-(6-(Difluoromethyl)pyridin-2-yl)-2-(1-methyl-2-oxabicyclo[2.1.1]hexan-4-yl)imidazo[1,2-a]pyrazine-6-carboxamide] here?
**A.** 0.0599 µM

**Q.** For `C[C@]12CC[C@](c3cn4cc(C(=O)Nc5cccc(C(F)F)n5)cc(OC(F)F)c4n3)(CO1)C2` (single isomer, unassigned) [Example 585], which IC50 is on record?
**A.** 0.0115 µM

**Q.** With `CCOc1nc(C(=O)Nc2cccnc2OC)cn2cc(C34COC(C)(C3)C4)nc12` [Example 225] as the compound, how does the IC50 read?
**A.** 0.0052 µM

Same assay, conditions: IRAK4 Biochemical Assay (1 mM ATP, 2 h) IC50 (μM), 1 mM ATP, 2 h, 100 pM IRAK4

**Q.** For `COc1ccc2ncc(NC(=O)c3cn4cc(C56COC(C)(C5)C6)nc4nc3OC(C)C)n2n1` [Example 308, 7-Isopropoxy-N-(6-methoxyimidazo[1,2-b]pyridazin-3-yl)-2-(1-methyl-2-oxabicyclo[2.1.1]hexan-4-yl)imidazo[1,2-a]pyrimidine-6-carboxamide trifluoroacetate], which IC50 is on record?
**A.** 0.002 µM

**Q.** `CC12CC(c3cn4cc(C(=O)Nc5cccc(C(F)F)n5)c(OC5CC5)nc4n3)(CO1)C2` [Example 312, 7-Cyclopropoxy-N-(6-(difluoromethyl)pyridin-2-yl)-2-(1-methyl-2-oxabicyclo[2.1.1]hexan-4-yl)imidazo[1,2-a]pyrimidine-6-carboxamide trifluoroacetate] was tested. Which IC50 did it give?
**A.** 0.0021 µM

**Q.** `CC(C)Oc1cc2nc(C34CCC(C)(CC3)OC4)cn2cc1C(=O)Nc1cccn(C)c1=O` [Example 574, 7-Isopropoxy-N-(1-methyl-2-oxo-1,2-dihydropyridin-3-yl)-2-(1-methyl-2-oxabicyclo[2.2.2]octan-4-yl)imidazo[1,2-a]pyridine-6-carboxamide] was tested. Which IC50 did it give?
**A.** 0.0002 µM

**Q.** Which IC50 does the source give for `CC(C)Oc1cc2nc(C34COC(C)(C3)C4)cn2cc1C(=O)Nc1ccno1` [Example 317, 7-Isopropoxy-N-(isoxazol-5-yl)-2-(1-methyl-2-oxabicyclo[2.1.1]hexan-4-yl)imidazo[1,2-a]pyridine-6-carboxamide trifluoroacetate] here?
**A.** 0.022 µM

**Q.** How did the IC50 turn out when `COc1cccc(NC(=O)c2cn3cc(C4CC4)nc3cc2OCC2CC3CCC2O3)n1` (stereo not shown) [Example 478, 7-((7-Oxabicyclo[2.2.1]heptan-2-yl)methoxy)-2-cyclopropyl-N-(6-methoxypyridin-2-yl)imidazo[1,2-a]pyridine-6-carboxamide] was run?
**A.** 0.0055 µM

**Q.** For `CCOc1cc2nc(C3CCOCC3)cn2cc1C(=O)Nc1cccc(C(F)CF)n1` (stereo not shown) [Example 392, N-(6-(1,2-difluoroethyl)pyridin-2-yl)-7-ethoxy-2-(tetrahydro-2H-pyran-4-yl)imidazo[1,2-a]pyridine-6-carboxamide hydrochloride], which IC50 is on record?
**A.** 0.0018 µM

**Q.** How did the IC50 turn out when `COc1cccc(NC(=O)c2cn3cc(C45COC(CF)(C4)C5)nc3cc2OC)n1` [Example 7] was run?
**A.** 0.0166 µM
